Here are results for 36 molecules from patent publication US20190117670A1, “LONGER-ACTING PROGESTIN PRODRUG CONTRACEPTIVES” (Evestra, Inc., priority 2017, published 2019).

The structures appear in SMILES notation.

System in the first data set: not given
Test: not given
The note with it: 3 month injectable product Depo Provera; cited from earlier work.
`CC(=O)O[C@]1(C(C)=O)CC[C@H]2[C@@H]3C[C@H](C)C4=CC(=O)CC[C@]4(C)[C@H]3CC[C@@]21C` [MPA, medroxyprogesterone acetate, reference compound]: the undesirable effects result was “increase of insulin levels, reduction of bone mass density, weight gain and enhanced risks for HIV infections”.

The next data set relates to cycling rats of Sprague-Dawley strain. In words: Estrous suppression assay (long term injectable contraceptive), anti-ovulatory activity in female rat model. The class given is in vivo. The note with it: 2 mg/rat, single s.c. injection of milled suspension, adult female rats, vaginal smear until cycling re-established. The method, then:
A stainless steel grinding bowl with a lid and seal along with three 10 mm stainless steel balls were used to formulate suspensions for injection. The compounds were weighed and added to the grinding bowl and steel balls. 1.5 mL of formulation vehicle was added to the grinding bowl, via pipette. The milling conditions used as listed: 20 minutes, 20 Hz. After milling, the suspension was transferred to a volumetric flask. Formulation vehicle was used to dilute the milled suspension to produce the desired injection dose.
Protocol: Testing Long Term Injectable Contraceptive
Adult female rats (180-200 g body weight) were used for the study (adapted over 1 week before starting the study).
For each compound, two doses were tested (2 and 4 mg/rat).
Long acting properties of each preparation had been determined in an estrous suppression assay using virgin, mature (180-200 g) cycling rats of Sprague-Dawley strain. Upon receipt the animals were smeared daily (procedure described as below) for cyclicity and those who were showing two consecutive cycles were used for the study. Each animal was injected subcutaneously (s.c) with 0.5 ml of the test preparation (in the vehicle as described above) on the same day regardless of the stage of the cycle. Each compound was initially tested in 6 rats. Everyday excluding weekend, smears were taken starting on the day after injection and continued until such time that cornification of vaginal epithelium was observed and cycling was re-established (Bialy G, Blye R P, Enever R P, Naqvi R H, Lindberg M C. Long-acting contraceptive agents: structure activity relationships in a series of norethisterone and levonorgestrel esters. Steroids 1983, v 41, p 361).
Epithelium and lamina propria of the vagina undergo characteristic changes during the cycle. This cyclical changes was used in rodents to stage cycle diagnosis (1). During the cycle, it comes to a complete replacement of the epithelium. In order to determine the stage of the cycle, vaginal solution/mucus was collected as follows. The rat was fixed with one hand. With the other hand, a small moistened cotton swab (2-3 mm diameter) was inserted into the vagina and removed by gently rotating cell material. This was done with caution, since excessive irritation could induce a pseudopregnancy stage in animals. A drop of water on a slide was applied and dabbed the cotton swab in it. The smear was assessed under the microscope (Nikon Eclipse Ti, Magnification: 10×0.25) (Nelson J F, Felicio L S, Randall P K, Sims C, Finch C E. A longitudinal study of estrous cyclicity in aging C57BL/6J mice: I. Cycle frequency, length and vaginal cytology. Biol Reprod. 1982 September; 27(2):327-39).
The smear of diestrous is characterized by some neutrophils and a few small degenerated, irregularly shaped epithelial cells.
The microscopic image of the smear contains a moderate number of epithelial cells with large nuclei, which are usually visible as cell clusters.
The lamina propria leukocytes migrate into the epithelium. The smear is characterized by many big horny epithelial cells.
In metestrous stage, masses of polymorphonuclear cells with some cornified epithelial cells in the smear will become visible.
As for `C[C@H](O)C(=O)[C@@]1(C)CCC2C3CCC4=CC(=O)CCC4=C3CC[C@@]21C` (some centres unmarked) [EC213 TMG, reference compound], the “Rat Anti-ovulatory Activity Days +/− 2” value stood at 19 days.
Still for that read-out and setting: next, `C#C[C@]1(OC(=O)CCC)CCC2C3CCC4=CC(=O)CCC4C3CC[C@@]21CC` (some centres unmarked) [EC600 LB, Levonorgestrel butanoate, reference compound]: 33 days; `C#C[C@]1(OC(=O)COc2cccc(S(N)(=O)=O)c2)CCC2C3CCC4=CC(=O)CCC4C3CC[C@@]21CC` (some centres unmarked) [EC601]: 10 days; `C#C[C@]1(OC(=O)COc2ccc(S(N)(=O)=O)cc2)CCC2C3CCC4=CC(=O)CCC4C3CC[C@@]21CC` (some centres unmarked) [EC624]: 20.5 days.
Turning to `C#C[C@]1(OC(=O)COc2ccccc2)CCC2C3CCC4=CC(=O)CCC4C3CC[C@@]21CC` (some centres unmarked) [EC625], the “Rat Anti-ovulatory Activity Days +/− 2” value was determined as 43 days.
Still for that read-out and setting: then `C#C[C@]1(OC(=O)COc2ccc(Cl)cc2)CCC2C3CCC4=CC(=O)CCC4C3CC[C@@]21CC` (some centres unmarked) [EC631], with 33.5 days.
On the same count and under the same terms, next, `C#C[C@]1(OC(=O)COc2ccccc2C)CCC2C3CCC4=CC(=O)CCC4C3CC[C@@]21CC` (some centres unmarked) [EC632]: 8.5 days.
The same measure, in the same setting: then `C#C[C@]1(OC(=O)COc2ccccc2Cl)CCC2C3CCC4=CC(=O)CCC4C3CC[C@@]21CC` (some centres unmarked) [EC633], with 16.3 days; and `C#C[C@]1(OC(=O)COc2ccc(OC)cc2)CCC2C3CCC4=CC(=O)CCC4C3CC[C@@]21CC` (some centres unmarked) [EC634], with 30 days; and `C#C[C@]1(OC(=O)COc2ccccc2OC)CCC2C3CCC4=CC(=O)CCC4C3CC[C@@]21CC` (some centres unmarked) [EC635], with 13 days.
Turning to `C#C[C@]1(OC(=O)COc2cccc(OC)c2)CCC2C3CCC4=CC(=O)CCC4C3CC[C@@]21CC` (some centres unmarked) [EC636], the “Rat Anti-ovulatory Activity Days +/− 2” value was 13 days.
On the same count and under the same terms, then `C#C[C@]1(OC(=O)[C@H](C)Oc2ccccc2)CCC2C3CCC4=CC(=O)CCC4C3CC[C@@]21CC` (some centres unmarked) [EC638], with 8 days; and `C#C[C@]1(OC(=O)COc2cccc(F)c2)CCC2C3CCC4=CC(=O)CCC4C3CC[C@@]21CC` (some centres unmarked) [EC639], with 31 days.
The same measure, in the same setting: next, `C#C[C@]1(OC(=O)COc2ccc(F)cc2)CCC2C3CCC4=CC(=O)CCC4C3CC[C@@]21CC` (some centres unmarked) [EC640]: 31 days.
On the same count and under the same terms, then `C#C[C@]1(OC(=O)COc2cccnc2)CCC2C3CCC4=CC(=O)CCC4C3CC[C@@]21CC` (some centres unmarked) [EC641], with 23 days; and `C#C[C@]1(OC(=O)COc2ccccc2F)CCC2C3CCC4=CC(=O)CCC4C3CC[C@@]21CC` (some centres unmarked) [EC642], with 41 days; and `C#C[C@]1(OC(=O)CCc2ccccc2OC)CCC2C3CCC4=CC(=O)CCC4C3CC[C@@]21CC` (some centres unmarked) [EC643], with 3 days.
Take `C#C[C@]1(OC(=O)COc2ccc3c(c2)OCO3)CCC2C3CCC4=CC(=O)CCC4C3CC[C@@]21CC` (some centres unmarked) [EC644]: the “Rat Anti-ovulatory Activity Days +/− 2” value is 20 days.
Turning to `C#C[C@]1(OC(=O)COc2ccc(S(C)(=O)=O)cc2)CCC2C3CCC4=CC(=O)CCC4C3CC[C@@]21CC` (some centres unmarked) [EC645], the “Rat Anti-ovulatory Activity Days +/− 2” value was found to be 31 days.
Same read-out and setting: next, `C#C[C@]1(OC(=O)CNc2ccccc2)CCC2C3CCC4=CC(=O)CCC4C3CC[C@@]21CC` (some centres unmarked) [EC646]: 13 days; `C#C[C@]1(OC(=O)CSc2ccccc2)CCC2C3CCC4=CC(=O)CCC4C3CC[C@@]21CC` (some centres unmarked) [EC647]: 20 days.
Still for that read-out and setting: next, `C#C[C@]1(OC(=O)COc2ccc(S(N)(=O)=O)cc2Cl)CCC2C3CCC4=CC(=O)CCC4C3CC[C@@]21CC` (some centres unmarked) [EC648]: 18 days.
The same measure, in the same setting: next, `C#C[C@]1(OC(=O)COc2ccc(S(N)(=O)=O)cc2C)CCC2C3CCC4=CC(=O)CCC4C3CC[C@@]21CC` (some centres unmarked) [EC649]: 18.5 days; `C#C[C@]1(OC(=O)COc2ccc(S(N)(=O)=O)c(Cl)c2)CCC2C3CCC4=CC(=O)CCC4C3CC[C@@]21CC` (some centres unmarked) [EC650]: 18.5 days.
With `C#C[C@]1(OC(=O)COc2ccccc2)CCC2C3CCC4=CC(=O)CCC4C3C(=C)C[C@@]21CC` (some centres unmarked) [EC651], the “Rat Anti-ovulatory Activity Days +/− 2” value worked out at 52 days.
The same measure, in the same setting: next, `C#C[C@]1(OC(=O)COc2cc(C)on2)CCC2C3CCC4=CC(=O)CCC4C3CC[C@@]21CC` (some centres unmarked) [EC652]: 27 days.
Same read-out and setting: then `C#C[C@]1(OC(=O)COc2ccc(S(N)(=O)=O)c(F)c2)CCC2C3CCC4=CC(=O)CCC4C3CC[C@@]21CC` (some centres unmarked) [EC653], with 15 days; and `C#C[C@]1(OC(=O)COc2cccc(-c3ccccc3)c2)CCC2C3CCC4=CC(=O)CCC4C3CC[C@@]21CC` (some centres unmarked) [EC654], with 8 days.
On the same count and under the same terms, next, `C#C[C@]1(OC(=O)COc2ccc(-c3ccccc3)cc2)CCC2C3CCC4=CC(=O)CCC4C3CC[C@@]21CC` (some centres unmarked) [EC655]: 37 days; `C#C[C@]1(OC(=O)COc2ccc(C#N)cc2)CCC2C3CCC4=CC(=O)CCC4C3CC[C@@]21CC` (some centres unmarked) [EC658]: 29 days.
Turning to `CC(=O)O[C@]1(C(C)=O)CC[C@H]2[C@@H]3C[C@H](C)C4=CC(=O)CC[C@]4(C)[C@H]3CC[C@@]21C` [MPA, medroxyprogesterone acetate, reference compound], the “Rat Anti-ovulatory Activity Days +/− 2” value came to 22 days.

Still in this data set, the particulars now being: 4 mg/rat, single s.c. injection of milled suspension, adult female rats, vaginal smear until cycling re-established.
`C#C[C@]1(OC(=O)COc2cccc(S(N)(=O)=O)c2)CCC2C3CCC4=CC(=O)CCC4C3CC[C@@]21CC` (some centres unmarked) [EC601]: the “Rat Anti-ovulatory Activity Days +/− 2” value is 34 days.
For the molecule `C#C[C@]1(OC(=O)COc2ccccc2)CCC2C3CCC4=CC(=O)CCC4C3CC[C@@]21CC` (some centres unmarked) [EC625], the “Rat Anti-ovulatory Activity Days +/− 2” value was 69 days.
Still for that read-out and setting: then `C#C[C@]1(OC(=O)CCc2ccccc2)CCC2C3CCC4=CC(=O)CCC4C3CC[C@@]21CC` (some centres unmarked) [EC626], with 20 days.
The same measure, in the same setting: next, `C#C[C@]1(OC(=O)/C=C/c2ccccc2)CCC2C3CCC4=CC(=O)CCC4C3CC[C@@]21CC` (some centres unmarked) [EC627]: 6 days.
Same read-out and setting: next, `C#C[C@]1(OC(=O)COc2cccc(C)c2)CCC2C3CCC4=CC(=O)CCC4C3CC[C@@]21CC` (some centres unmarked) [EC628]: 36 days; `C#C[C@]1(OC(=O)COc2ccc(C)cc2)CCC2C3CCC4=CC(=O)CCC4C3CC[C@@]21CC` (some centres unmarked) [EC629]: 44.8 days.
As to `C#C[C@]1(OC(=O)COc2cccc(Cl)c2)CCC2C3CCC4=CC(=O)CCC4C3CC[C@@]21CC` (some centres unmarked) [EC630], the “Rat Anti-ovulatory Activity Days +/− 2” value turned out to be 46.5 days.
On the same count and under the same terms, next, `CC(=O)O[C@]1(C(C)=O)CC[C@H]2[C@@H]3C[C@H](C)C4=CC(=O)CC[C@]4(C)[C@H]3CC[C@@]21C` [MPA, medroxyprogesterone acetate, reference compound]: 40 days.

System in another data set: not given
Test: not given
The note with it: cited from earlier work.
With `C#C[C@]1(OC(=O)CCC)CCC2C3CCC4=CC(=O)CCC4C3CC[C@@]21CC` (some centres unmarked) [EC600 LB, Levonorgestrel butanoate, reference compound], the “contraceptive effect in the clinic” value is listed as “failed in the clinic to reach a contraceptive effect for up to 6 month”.
